Test system: Streptomyces lividans TK24(pANT195)
Assay: Viability of doxA-transformed culture incubated with daunomycin
Format: cell-based
Experimental: Cultures of S. lividans TK24 containing plasmid pANT195 and control cultures of S. lividans TK24 containing plasmid pANT849 were grown on R2YE agar medium containing 10 μg/ml of thiostrepton in standard 100 mm×15 mm plastic petri dishes for 5 days at 30° C., at which time the entire cultures had sporulated. The spores from one entire petri plate were used to inoculate 50 ml of modified YEME medium in 250 ml erlenmeyer flasks. Then 10 μg/ml thiostrepton in DMSO were added to the medium. The thiostrepton was added as selective pressure to maintain the plasmids. The cultures were grown for 48 hours at 30° C. with rotary shaking at 250 rpm, one inch throw on the shaker. After 48 hours, a 1.5 ml sample was removed for plasmid analysis to ensure the presence and size of the insert DNA containing the doxA gene using a "mini-prep" procedure according to Carter, M. J., and I. D. Milton, (1993), "An Inexpensive and Simple Method for DNA Purification on Silica Particles," Nucleic Acids Res., Vol. 21, page 1044. Restriction endonuclease digestion with BspEI and agarose gel electrophoresis generated 1.7 kbp, 2.2 kbp, and 3.14 kbp fragments which indicated an intact plasmid and insert. Then a 10 μL solution containing 100 μg of filter sterilized daunomycin-HCl in distilled water was added to the cultures for a final concentration of 2.0 μg of daunomycin per ml of culture broth. Incubation was continued for 72 hours.
The procedure of Example 1 was repeated, with the following exceptions. The cultures were grown at 28° C. rather than 30° C., for 48 hours. After 48 hours of growth, 500 μg of daunomycin-HCl were added to the cultures for a final concentration of 10.0 μg/ml of daunomycin followed by further incubation for 36 hours, instead of 72 hours.
A 50 ml culture of Streptomyces lividans TK24(pANT195) culture was prepared as in Example 1. […] The cultures were incubated for 48 hours and then extracted as described in Example 1 and analyzed by HPLC and TLC. […]

COc1cccc2c1C(=O)c1c(O)c3c(c(O)c1C2=O)C[C@@](O)(C(C)=O)C[C@@H]3O[C@H]1C[C@H](N)[C@H](O)[C@H](C)O1 [daunomycin]
state of the cultures after incubation with daunomycin (2 μg/ml of daunomycin, cultures of Examples 1 and 2): fully viable | toxicity to the host (16.7 μg/ml of daunomycin, about 8-fold concentrated mycelia in MOPS buffer pH 7.2 (Example 10)): toxic to the host | state of the doxA transformed culture at the end of incubation (22.2 μg/ml daunomycin, 48 hours, 28° C., YEME medium (Example 3)): virtually dead

— patent US5976830A, “Methods of producing doxorubicin” (priority 1996, dated 1999)
